# Source: patent US9987276B2 (Celgene CAR LLC, priority 2008, dated 2018)
# Read-outs that look alike come from different tables or passages of the source.
# Assays:
# BTK [1] = target: T1, BTK (Homo sapiens (Human), UniProt Q06187); assay: Omnia assay for potency assessment against BTK; format: biochemical; conditions: [BTK]=5 nM, Omnia assay; read-out: BTK Inhibition (IC50)
# Description: The modified BTK-optimized reagent conditions for the above protocol are:
# [BTK]=5 nM, [ATP]=[…], [Y5-Sox]=[…] (ATP KMapp˜[…]).
# BTK [2] = target: T1, BTK; assay: BTK Ramos cellular assay (PLCγ2 phosphorylation); format: cell-based; conditions: Ramos cells, 1 hour compound, anti-IgM stimulation, p-PLCγ2; read-out: BTK Inhibition (IC50), BTK Ramos cellular inhibition
# BTK [3] = target: T1, BTK; assay: Mass spectrometry for BTK (intact protein); format: binding; conditions: 1 hr, 10× fold excess of compound
# Description: Intact BTK was incubated for 1 hr at a 10× fold excess of I-7 to protein. Aliquots (2 μl) of the samples were diluted with 10 μl of 0.1% TFA prior to micro C4 ZipTipping directly onto the MALDI target using Sinapinic acid as the desorption matrix (10 mg/ml in 0.1% TFA:Acetonitrile 20:80).
# ITK = ITK (Homo sapiens (Human), UniProt Q08881); assay: Omnia assay for potency assessment against active forms of ITK kinase; format: biochemical; conditions: [ITK]=10 nM, [ATP]=25, [Y6-Sox]=10 μM; read-out: ITK Inhibition
# Description: [ITK]=10 nM, [ATP]=25 [Y6-Sox]=10 μM (ATP KMapp=33 μM).
# EGFR-WT = EGFR-WT (Homo sapiens (Human), UniProt P00533); assay: Omnia assay for potency assessment against EGFR (WT)
# BTK [4] = target: T1, BTK; assay: Washout experiment with Ramos cells; format: cell-based; conditions: 100 nM compound for 1 hour, then washout
# Description: Ramos cells were serum starved for one hour in RPMI media+1% glutamine at 37° C. After starvation, Ramos cells were treated with 100 nM compound diluted in serum free RPMI media for 1 hour. After compound treatment, the media was removed and cells were washed with compound-free media. Subsequently, Ramos cells were washed every 2 hours and resuspended in fresh compound-free media. Cells were collected at specified timepoints, treated with 1 ug anti-human IgM (Southern Biotech cat #2022-01) for 10 minutes on ice to induce BCR signaling and then washed in PBS. Ramos cells were then lysed in Cell Extraction Buffer (Invitrogen FNN0011) supplemented with Roche complete protease inhibitor tablets (Roche 11697498001) and phosphatase inhibitors (Roche 04 906 837 001) and 18 ug total protein lysate was loaded in each lane. Inhibition of BTK kinase activity was assayed by measuring its substrate (PLCγ2) phosphorylation by western blot with phospho-specific antibodies from Cell Signaling Technologies cat #3871. The results of this experiment with compounds I-2, I-4 and I-7 are depicted in FIGS. 1, 2 and 3.
# BMX = BMX (Homo sapiens (Human), UniProt P51813); assay: Omnia assay for potency assessment against active forms of BMX kinase; format: biochemical; conditions: [BMX]=2.5 nM, [ATP]=100 μM, [Y5-Sox]=7.5 μM; read-out: BMX Inhibition
# Description: Briefly, 10× stocks of EGFR-WT (PV3872) from Invitrogen and EGFR-T790M/L858R (40350) from BPS Bioscience, San Diego, Calif., 1.13×ATP (AS001A) and appropriate Tyr-Sox conjugated peptide substrates (KCZ1001) were prepared in 1× kinase reaction buffer consisting of 20 mM Tris, pH 7.5, 5 mM MgCl2, 1 mM EGTA, 5 mM β-glycerophosphate, 5% glycerol (10× stock, KB002A) and 0.2 mM DTT (DS001A).
# This example describes continuous-read kinase assays to measure inherent potency of compound against active forms of BMX enzymes as described in Example 251 above except that the modified BMX-optimized reagent conditions are:
# [BMX]=2.5 nM, [ATP]=100 μM, [Y5-Sox]=7.5 μM (ATP KMapp=107 μM).
# EGFR-T790M/L858R = EGFR-T790M/L858R (Homo sapiens (Human), UniProt P00533, L858R/T790M); assay: Omnia assay for potency assessment against EGFR (T790M/L858R); conditions: read-out: EGFR (T790M/L858R); EGFR mutant T790M/L858R
# EGFR T790M = EGFR T790M (Homo sapiens (Human), UniProt P00533, T790M); assay: EGFR mutant T790M inhibition assay; format: biochemical
# Description: The Omnia Assay Protocol for potency assessment against EGFR is performed as described in Example 251 above except that the EGFR-WT- and EGFR T790M/L858R-modified optimized reagent conditions are: […]
# DOHH2 = assay: B cell lymphoma proliferation assay, DOHH2; format: cell-based
# [5] = read-out: EGFR (wild type inhibition), EGFR wild type
# Chain of ITK (Q08881 whole entry): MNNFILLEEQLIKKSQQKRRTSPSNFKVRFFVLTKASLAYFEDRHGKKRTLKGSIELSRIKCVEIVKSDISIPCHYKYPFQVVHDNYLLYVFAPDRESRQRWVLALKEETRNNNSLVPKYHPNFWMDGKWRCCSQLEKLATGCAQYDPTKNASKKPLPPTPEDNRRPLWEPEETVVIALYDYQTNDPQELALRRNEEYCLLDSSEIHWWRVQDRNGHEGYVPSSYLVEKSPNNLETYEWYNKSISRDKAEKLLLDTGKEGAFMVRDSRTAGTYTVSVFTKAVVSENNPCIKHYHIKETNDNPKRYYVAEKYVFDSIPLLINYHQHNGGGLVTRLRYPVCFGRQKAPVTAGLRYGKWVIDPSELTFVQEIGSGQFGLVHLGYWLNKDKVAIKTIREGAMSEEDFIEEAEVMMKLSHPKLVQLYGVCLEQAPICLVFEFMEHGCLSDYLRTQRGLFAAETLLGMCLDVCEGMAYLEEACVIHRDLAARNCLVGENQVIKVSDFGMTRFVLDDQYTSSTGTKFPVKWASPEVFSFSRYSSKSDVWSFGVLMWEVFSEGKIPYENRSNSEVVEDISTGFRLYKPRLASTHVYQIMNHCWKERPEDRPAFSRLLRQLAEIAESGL
# Chain of BMX (P51813 whole entry): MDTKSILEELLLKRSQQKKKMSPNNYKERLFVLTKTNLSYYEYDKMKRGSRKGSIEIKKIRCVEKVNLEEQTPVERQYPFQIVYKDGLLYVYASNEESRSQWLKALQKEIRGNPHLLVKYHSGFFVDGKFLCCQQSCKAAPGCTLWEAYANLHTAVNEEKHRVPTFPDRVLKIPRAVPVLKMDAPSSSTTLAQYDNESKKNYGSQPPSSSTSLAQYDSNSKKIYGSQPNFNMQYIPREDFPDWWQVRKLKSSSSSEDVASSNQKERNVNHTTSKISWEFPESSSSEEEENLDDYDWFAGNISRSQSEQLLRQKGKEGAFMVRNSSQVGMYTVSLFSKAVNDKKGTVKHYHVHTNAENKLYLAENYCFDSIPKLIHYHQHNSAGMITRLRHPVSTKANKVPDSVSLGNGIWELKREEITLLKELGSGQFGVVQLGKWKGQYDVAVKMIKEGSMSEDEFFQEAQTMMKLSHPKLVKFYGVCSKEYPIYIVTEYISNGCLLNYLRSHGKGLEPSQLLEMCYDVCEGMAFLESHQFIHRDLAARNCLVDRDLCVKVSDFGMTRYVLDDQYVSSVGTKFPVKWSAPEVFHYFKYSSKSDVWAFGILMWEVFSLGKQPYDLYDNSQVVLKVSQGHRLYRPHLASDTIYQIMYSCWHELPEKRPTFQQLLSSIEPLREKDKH
# T1 sequence (Q06187 whole entry): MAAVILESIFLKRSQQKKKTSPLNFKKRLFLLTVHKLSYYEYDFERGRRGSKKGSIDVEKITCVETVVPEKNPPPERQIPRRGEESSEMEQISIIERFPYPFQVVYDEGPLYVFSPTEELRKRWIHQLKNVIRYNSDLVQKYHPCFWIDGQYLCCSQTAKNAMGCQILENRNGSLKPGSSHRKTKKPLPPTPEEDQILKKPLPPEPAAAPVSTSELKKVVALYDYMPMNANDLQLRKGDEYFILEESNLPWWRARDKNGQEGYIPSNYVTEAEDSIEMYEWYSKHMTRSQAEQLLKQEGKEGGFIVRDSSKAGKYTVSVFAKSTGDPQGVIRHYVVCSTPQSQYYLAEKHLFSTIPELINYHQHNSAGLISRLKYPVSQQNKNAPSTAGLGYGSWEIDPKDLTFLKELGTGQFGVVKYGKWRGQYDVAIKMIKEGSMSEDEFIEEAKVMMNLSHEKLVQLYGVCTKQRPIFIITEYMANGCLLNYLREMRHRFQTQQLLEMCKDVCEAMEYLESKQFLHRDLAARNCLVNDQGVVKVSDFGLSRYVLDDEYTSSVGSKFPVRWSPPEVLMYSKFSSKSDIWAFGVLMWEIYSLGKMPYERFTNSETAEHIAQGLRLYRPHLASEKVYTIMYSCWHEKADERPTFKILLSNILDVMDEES
# Chain of EGFR-WT (P00533 668-1210): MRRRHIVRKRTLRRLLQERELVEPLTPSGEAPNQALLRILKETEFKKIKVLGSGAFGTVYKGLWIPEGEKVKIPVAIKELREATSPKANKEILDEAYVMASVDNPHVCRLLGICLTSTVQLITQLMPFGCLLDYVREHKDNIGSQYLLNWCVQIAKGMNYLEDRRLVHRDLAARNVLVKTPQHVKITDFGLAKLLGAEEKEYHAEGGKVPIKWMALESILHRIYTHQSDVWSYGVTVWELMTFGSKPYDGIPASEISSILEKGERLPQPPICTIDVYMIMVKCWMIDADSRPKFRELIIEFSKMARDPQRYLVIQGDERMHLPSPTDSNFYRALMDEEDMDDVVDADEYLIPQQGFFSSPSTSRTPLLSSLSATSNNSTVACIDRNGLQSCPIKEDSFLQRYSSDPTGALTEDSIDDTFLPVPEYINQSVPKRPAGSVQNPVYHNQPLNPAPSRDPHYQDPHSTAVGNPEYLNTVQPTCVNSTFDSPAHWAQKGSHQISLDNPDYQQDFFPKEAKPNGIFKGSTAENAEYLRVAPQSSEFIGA
# Chain of EGFR-T790M/L858R (P00533 25-1210 T790M/L858R): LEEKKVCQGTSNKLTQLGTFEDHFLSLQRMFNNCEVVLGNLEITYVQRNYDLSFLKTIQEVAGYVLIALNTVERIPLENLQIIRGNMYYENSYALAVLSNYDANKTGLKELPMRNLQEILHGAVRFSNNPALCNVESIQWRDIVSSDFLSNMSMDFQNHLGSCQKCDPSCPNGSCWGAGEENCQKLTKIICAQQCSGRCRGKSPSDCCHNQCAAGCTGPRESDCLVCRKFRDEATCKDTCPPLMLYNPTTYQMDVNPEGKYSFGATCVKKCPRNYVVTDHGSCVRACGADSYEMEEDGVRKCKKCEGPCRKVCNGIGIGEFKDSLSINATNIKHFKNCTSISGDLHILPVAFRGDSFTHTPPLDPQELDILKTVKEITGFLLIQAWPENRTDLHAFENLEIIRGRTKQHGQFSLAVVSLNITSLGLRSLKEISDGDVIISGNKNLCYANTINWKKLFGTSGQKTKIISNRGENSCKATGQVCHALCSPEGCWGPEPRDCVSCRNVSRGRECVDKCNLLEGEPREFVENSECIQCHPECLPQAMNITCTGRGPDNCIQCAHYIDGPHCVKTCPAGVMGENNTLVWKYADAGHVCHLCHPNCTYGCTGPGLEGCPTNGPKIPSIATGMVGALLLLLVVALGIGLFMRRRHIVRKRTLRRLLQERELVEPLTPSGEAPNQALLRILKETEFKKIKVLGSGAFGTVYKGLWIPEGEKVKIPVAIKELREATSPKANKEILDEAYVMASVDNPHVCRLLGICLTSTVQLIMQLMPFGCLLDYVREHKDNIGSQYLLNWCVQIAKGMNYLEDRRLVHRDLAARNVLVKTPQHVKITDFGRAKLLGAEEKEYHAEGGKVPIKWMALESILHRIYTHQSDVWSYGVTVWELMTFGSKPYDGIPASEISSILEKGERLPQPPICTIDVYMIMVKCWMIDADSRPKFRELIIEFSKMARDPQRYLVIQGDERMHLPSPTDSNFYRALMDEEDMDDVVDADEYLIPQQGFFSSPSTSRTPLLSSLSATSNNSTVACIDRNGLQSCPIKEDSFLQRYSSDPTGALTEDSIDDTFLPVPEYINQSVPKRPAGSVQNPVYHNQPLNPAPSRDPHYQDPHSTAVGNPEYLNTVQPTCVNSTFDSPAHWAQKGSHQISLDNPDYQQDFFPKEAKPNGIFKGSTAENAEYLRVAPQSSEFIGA
# Chain of EGFR T790M (P00533 25-1210 T790M): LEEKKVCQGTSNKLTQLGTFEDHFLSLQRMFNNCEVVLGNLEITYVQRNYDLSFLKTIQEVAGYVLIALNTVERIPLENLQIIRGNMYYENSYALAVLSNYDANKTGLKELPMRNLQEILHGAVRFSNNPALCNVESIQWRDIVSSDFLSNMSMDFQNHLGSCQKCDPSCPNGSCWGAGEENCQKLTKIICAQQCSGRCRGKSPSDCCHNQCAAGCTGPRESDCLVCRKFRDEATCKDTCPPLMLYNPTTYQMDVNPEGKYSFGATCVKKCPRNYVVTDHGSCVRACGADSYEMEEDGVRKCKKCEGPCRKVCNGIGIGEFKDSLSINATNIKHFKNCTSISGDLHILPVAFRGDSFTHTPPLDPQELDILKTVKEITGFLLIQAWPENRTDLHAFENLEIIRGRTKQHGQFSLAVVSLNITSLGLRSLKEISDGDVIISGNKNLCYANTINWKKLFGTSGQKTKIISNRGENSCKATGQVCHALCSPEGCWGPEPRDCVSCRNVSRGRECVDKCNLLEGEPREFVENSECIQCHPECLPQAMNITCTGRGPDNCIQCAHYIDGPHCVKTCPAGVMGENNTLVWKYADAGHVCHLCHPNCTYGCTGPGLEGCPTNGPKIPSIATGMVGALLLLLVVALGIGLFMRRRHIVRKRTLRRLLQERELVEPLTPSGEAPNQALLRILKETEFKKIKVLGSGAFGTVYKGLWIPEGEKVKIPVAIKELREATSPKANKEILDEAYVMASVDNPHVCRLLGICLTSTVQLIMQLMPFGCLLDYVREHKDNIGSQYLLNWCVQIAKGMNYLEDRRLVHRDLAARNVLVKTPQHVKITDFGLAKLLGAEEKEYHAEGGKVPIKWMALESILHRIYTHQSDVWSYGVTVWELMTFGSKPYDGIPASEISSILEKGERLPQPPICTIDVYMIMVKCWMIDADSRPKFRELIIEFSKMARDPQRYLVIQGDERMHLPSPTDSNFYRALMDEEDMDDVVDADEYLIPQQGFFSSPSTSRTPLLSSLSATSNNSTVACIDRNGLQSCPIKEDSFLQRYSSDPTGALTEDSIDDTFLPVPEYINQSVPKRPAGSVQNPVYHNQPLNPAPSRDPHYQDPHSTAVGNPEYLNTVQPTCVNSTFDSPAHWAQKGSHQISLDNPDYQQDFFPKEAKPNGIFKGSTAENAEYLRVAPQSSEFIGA
SMILES,IC50 (BTK [1]),IC50 (BTK [2]),covalent modification of BTK (mass spectrometry) (BTK [3]),IC50 (ITK),IC50 (EGFR-WT; [5]),BTK Inhibition Type (BTK [4]),IC50 (BMX),IC50 (EGFR-WT),IC50 (EGFR-T790M/L858R),IC50 (EGFR T790M),EC50 (DOHH2)
"C=CC(=O)N1CCOc2ccc(Nc3ncc(F)c(Nc4cccc(Cl)c4)n3)cc21 [Compound I-149, 1-(6-(4-(3-chlorophenylamino)-5-fluoropyrimidin-2-ylamino)-2H-benzo[b][1,4]oxazin-4(3H)-yl)prop-2-en-1-one]",< 10 nM,10 to 100 nM,completely modify,1000 to 10000 nM,1000 to 10000 nM,–,–,–,–,–,–
"Cc1cnc(Nc2ccccc2)nc1Nc1cccc(NC(=O)/C=C/CN(C)C)c1 [Compound I-38, (E)-4-(dimethylamino)-N-(3-(5-methyl-2-(phenylamino)pyrimidin-4-ylamino)phenyl)but-2-enamide]",< 10 nM,10 to 100 nM,–,10 to 100 nM,–,reversible,< 10 nM,10 to 100 nM,< 10 nM,–,–
"C=CC(=O)Nc1cccc(Nc2nc(Nc3cccc(OC(F)(F)F)c3)ncc2F)c1 [Compound I-244, N-(3-(5-fluoro-2-(3-(trifluoromethoxy)phenylamino)pyrimidin-4-ylamino)phenyl)acrylamide]",< 10 nM,10 to 100 nM,completely modify,100 to 1000 nM,–,–,< 10 nM,100 to 1000 nM,–,–,–
"C=C(C#N)C(O)c1ccc(Nc2nc(Nc3ccccc3)ncc2F)cc1 (centres unmarked) [Compound I-161, 2-((4-(5-fluoro-2-(phenylamino)pyrimidin-4-ylamino)phenyl)(hydroxy)methyl)acrylonitrile]",< 10 nM,–,completely modify,–,–,–,–,10 to 100 nM,–,–,–
"C=CC(=O)Nc1cccc(Nc2nc(Nc3ccccc3)ncc2F)c1 [Compound I-28, N-(3-(5-fluoro-2-(phenylamino)pyrimidin-4-ylamino)phenyl)acrylamide]",< 10 nM,–,–,10 to 100 nM,–,irreversible,< 10 nM,10 to 100 nM,–,–,–
"C=CC(=O)N1CCC[C@@H](Nc2nc(Nc3cccc(OC)c3)ncc2F)C1 [Compound I-195, (R)-1-(3-(5-fluoro-2-(3-methoxyphenylamino)pyrimidin-4-ylamino)piperidin-1-yl)prop-2-en-1-one]",< 10 nM,10 to 100 nM,completely modify,10 to 100 nM,–,–,–,10 to 100 nM,–,–,–
"C=CC(=O)Nc1cccc(Nc2ncc(F)c(Nc3cccc(C)c3)n2)c1 [Compound I-3, N-(3-(5-fluoro-4-(m-tolylamino)pyrimidin-2-ylamino)phenyl) acrylamide]",< 10 nM,10 to 100 nM,–,–,< 10 nM,–,–,–,< 10 nM,< 10 nM,–
"C=CC(=O)N1CCOc2ccc(Nc3nc(Nc4ccc(OC)nc4)ncc3C(C)=O)cc21 [Compound I-170, 1-{6-[5-Acetyl-2-(6-methoxy-pyridin-3-ylamino)-pyrimidin-4-ylamino]-2,3-dihydro-benzo[1,4]oxazin-4-yl}-propenone]",< 10 nM,10 to 100 nM,–,< 10 nM,–,–,–,–,–,–,1 to 10 µM
"C=CC(=O)N(C)Cc1ccc(Nc2nc(Nc3ccccc3)ncc2C)cc1 [Compound I-219, N-methyl-N-(4-(5-methyl-2-(phenylamino)pyrimidin-4-ylamino)benzyl)acrylamide]",< 10 nM,10 to 100 nM,completely modify,10 to 100 nM,–,–,–,10 to 100 nM,–,–,–
"C=C(C#N)C(O)c1cccc(Nc2nc(Nc3ccc(OCCOC)cc3)ncc2F)c1 (centres unmarked) [Compound I-71, 2-((3-(5-fluoro-2-(4-(2-methoxyethoxy)phenylamino)pyrimidin-4-ylamino)phenyl)(hydroxy)methyl)acrylonitrile]",< 10 nM,–,completely modify,–,–,–,–,10 to 100 nM,–,–,–
CC(C)=CC(=O)c1cccc(Nc2nc(Nc3cccc(OCCN(C)C)c3)ncc2F)c1 [Compound I-207],< 10 nM,100 to 1000 nM,completely modify,< 10 nM,–,–,–,100 to 1000 nM,–,–,–
"C=CC(=O)Nc1cccc(Oc2nc(Nc3ccccc3)ncc2C)c1 [Compound I-248, N-(3-(5-methyl-2-(phenylamino)pyrimidin-4-yloxy)phenyl)acrylamide]",< 10 nM,< 10 nM,–,< 10 nM,< 10 nM,irreversible,< 10 nM,–,–,–,–
"C=CC(=O)Nc1cccc(Nc2nc(Nc3ccc(OC)nc3)ncc2F)c1 [Compound I-243, N-(3-(5-fluoro-2-(6-methoxypyridin-3-ylamino)pyrimidin-4-ylamino)phenyl)acrylamide]",< 10 nM,< 10 nM,–,10 to 100 nM,–,irreversible,–,10 to 100 nM,–,–,–
"C#CCOc1cccc(Nc2ncc(C)c(Nc3cccc(NC(=O)C=C)c3)n2)c1 [Compound I-35, N-(3-(5-methyl-2-(3-(prop-2-ynyloxy)phenylamino)pyrimidin-4-ylamino)phenyl) acrylamide]",< 10 nM,< 10 nM,–,10 to 100 nM,–,irreversible,< 10 nM,10 to 100 nM,< 10 nM,–,–
"C=CC(=O)Nc1cccc(Nc2nc(Nc3ccc(F)cc3)ncc2F)c1 [Compound I-247, N-(3-(5-fluoro-2-(4-fluorophenylamino)pyrimidin-4-ylamino)phenyl)acrylamide]",< 10 nM,< 10 nM,–,10 to 100 nM,–,irreversible,< 10 nM,10 to 100 nM,–,–,–
